Measurements: patent US7015249B1, “Methods and compositions for treating diabetes” (Purdue Research Foundation, priority 1997, dated 2006)
Marks after values point to notes of the source that are not given here.

Experiments:
ACO and mAP2 mRNA = assay: Tissue-specific gene expression (ACO, mAP2) by RT-PCR in rats fed experimental diets; format: in vivo, rat; conditions: diet 14 days, 1.5% CLA or 0.2% troglitazone, vs control diet
Description: Male Zucker fatty (fa/fa) rats and lean littermates (wt) were obtained at six weeks of age from Genetic Models, Inc. (Indianapolis, Ind.). Because the primary aim of the study was to determine the ability of CLA to improve insulin action and prevent the onset of diabetes, all rats were determined normoglycemic prior to assignment to experimental treatments. (The diets are discussed in the subsequent section). After maintaining rats on experimental diets for 14 days, rats were euthanized by CO2 and cervical dislocation and tissues collected, weighed and frozen. RT-PCR was performed as described above. The genes utilized as markers of tissue and subtype specific PPAR activation included Acyl-CoA Oxidase (ACO; found in the liver and induced by PPARα activation), Adipocyte Specific Protein (mAP2; found in adipose tissue and induced by activation of PPARγ) and ACO in the muscle (induced by PPARβ). […] Body weights were measured twice weekly and average food consumption estimated by measuring differences in weight of freshly supplied diet and diet remaining in feeders two days later. […]

Zucker rats = assay: Plasma insulin, triglyceride and free fatty acid concentrations in Zucker rats; format: in vivo, rat; conditions: fed, diets 14 days
From the text: Diet components were obtained from Dyets, Inc. (Bethlehem, Pa.) and the CLA isomeric mixture (90% pure mixture) from PharmaNutrients, Chicago, Ill. The CLA mixture had the following isomeric distribution: 42% of a composition including cis,trans-9,11 and trans,cis-9,11-octadecadienoic acid; 43.5% trans,cis-10,12-octadecadienoic acid; 1% cis,cis-9,11-octadecadienoic acid; 1% cis,cis-10,12-octadecadienoic acid; and 1.5% of a composition including trans,trans-9,11-octadecadienoic acid and trans,trans-10,12-octadecadienoic acid, all on a weight percent basis. The CLA mixture also included, on a weight percent basis, about 0.5% linoleate, about 5.5% oleate and about 5% other lipids as discussed above. The thiazolidinedione, TZD (Rezulin™, Parke-Davis, Ann Arbor, MI), was used as a positive control for anti-diabetic activity in these studies. Male Zucker fatty (fa/fa) rats and lean littermates (wt) were obtained at six weeks of age from Genetic Models, Inc. (Indianapolis, Ind.). Because the primary aim of the study was to determine the ability of CLA to improve insulin action and prevent the onset of diabetes, all rats were determined normoglycemic prior to assignment to experimental treatments. After maintaining rats on experimental diets for 14 days, rats were euthanized by CO2 and cervical dislocation and blood collected and immediately analyzed for post-prandial glucose concentrations (see below) or placed into heparinized test tubes for plasma analyses as described below. Epididymal fat pads and livers were harvested and weighed. An aliquot of the epididymal fat pad was isolated into buffered saline for glucose transport analyses and the remaining epididymal fat pad and gastrocnemius muscle were isolated, immediately frozen in liquid nitrogen and stored at −80° C. until mRNA and protein analyses were performed. Three isocaloric, experimental diets were formulated according to a modified AIN-76 mixture containing 6.5% (by weight) fat (diet described in American Institute of Nutrition: Report of the American Institute of Nutrition Ad Hoc Committee on Standards for Nutritional Studies, J. Nutr. 107 1340–1348 (1977) but includes 6.5% by weight fat instead of 5% by weight fat). […] Body weights were measured twice weekly and average food consumption estimated by measuring differences in weight of freshly supplied diet and diet remaining in feeders two days later. […] Blood glucose levels were determined using a One Touch glucose meter (Lifescan, Inc.). Plasma insulin levels were determined using commercially available radioimmunoassay kits (Linco Research, St. Charles, Mo.). Plasma nonesterified fatty acids were quantified using a calorimetric kit (Wako). Plasma triglyceride concentrations were determined using a commercially available kit (Sigma Diagnostics, St. Louis, Mo.).

full length mouse PPARβ = biological target: T1, full length mouse PPARβ (Mus musculus, UniProt P35396); assay: Full length PPARβ PPRE-luciferase reporter assay in CV-1 cells; format: cell-based; conditions: 100 μM
T1 construct: constructs including full length mouse PPARα, PPARβ or PPARγ and a luciferase reporter gene; expressed in transfected cells; host or cells: CV-1 (African green monkey kidney cells)
T1 sequence (P35396 1-440): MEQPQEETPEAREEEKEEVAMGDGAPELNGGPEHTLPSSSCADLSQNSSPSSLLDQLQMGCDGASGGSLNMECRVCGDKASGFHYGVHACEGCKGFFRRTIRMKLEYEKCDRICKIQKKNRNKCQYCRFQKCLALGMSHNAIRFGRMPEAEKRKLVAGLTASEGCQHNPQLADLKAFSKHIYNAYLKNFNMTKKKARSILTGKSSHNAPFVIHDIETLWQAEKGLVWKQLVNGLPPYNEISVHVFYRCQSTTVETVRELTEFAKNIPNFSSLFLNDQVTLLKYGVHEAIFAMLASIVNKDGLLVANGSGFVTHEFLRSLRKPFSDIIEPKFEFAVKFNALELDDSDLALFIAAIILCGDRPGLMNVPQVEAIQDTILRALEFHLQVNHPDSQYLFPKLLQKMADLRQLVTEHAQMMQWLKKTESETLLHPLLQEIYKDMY
Description: (§1) The data in FIGS. 5–7 was generated utilizing constructs including full length mouse PPARα, PPARβ or PPARγ and a luciferase reporter gene. The CV-1 cell line (African green monkey kidney cells) used was obtained from American Type Culture Collection (#CCL-70). The cells were grown in Eagle minimal essential medium containing 10% fetal bovine serum (GIBCO). For each transfection involving PPARα, 625 ng pcDNA3-PPARα expression vector was used along with 250 ng of psV-GL-2-PPRE-luciferase reporter plasmid and 250 ng of pSV-β-galactosidase internal control plasmid. For each transfection involving PPARβ or PPARγ, either 625 ng pSG5-mouse-PPARβ or 625 ng pSG5-mouse-PPARγ was used along with 250 ng of the psV-GL2-PPRE-luciferase reporter plasmid and 250 ng of pSV-β-galactosidase internal control plasmid. Cells were transfected using Lipofect AMINE™ reagent (GIBCO) and phenol red-free, serum free medium (OptiMEM®I, GIBCO Life Technologies, Grand Island, N.Y.). Seven hours post-transfection, charcoal stripped serum (Cocalico Biologicals, Inc. Reamstown, Pa.) was added to the media (10% final concentration) for an overnight incubation (16 hours). […] The data were quantified relative to luciferase/β-galactosidase activity expressed as a ratio to vehicle-treated cells (0.1% DMSO).

full length mouse PPARγ = biological target: T2, full length mouse PPARγ (Mus musculus, UniProt P37238); assay: Full length PPARγ PPRE-luciferase reporter assay in CV-1 cells; format: cell-based; conditions: 100 μM, six hours
T2 construct: constructs including full length mouse PPARα, PPARβ or PPARγ and a luciferase reporter gene; expressed in transfected cells; host or cells: CV-1 (African green monkey kidney cells)
T2 sequence (P37238 1-505): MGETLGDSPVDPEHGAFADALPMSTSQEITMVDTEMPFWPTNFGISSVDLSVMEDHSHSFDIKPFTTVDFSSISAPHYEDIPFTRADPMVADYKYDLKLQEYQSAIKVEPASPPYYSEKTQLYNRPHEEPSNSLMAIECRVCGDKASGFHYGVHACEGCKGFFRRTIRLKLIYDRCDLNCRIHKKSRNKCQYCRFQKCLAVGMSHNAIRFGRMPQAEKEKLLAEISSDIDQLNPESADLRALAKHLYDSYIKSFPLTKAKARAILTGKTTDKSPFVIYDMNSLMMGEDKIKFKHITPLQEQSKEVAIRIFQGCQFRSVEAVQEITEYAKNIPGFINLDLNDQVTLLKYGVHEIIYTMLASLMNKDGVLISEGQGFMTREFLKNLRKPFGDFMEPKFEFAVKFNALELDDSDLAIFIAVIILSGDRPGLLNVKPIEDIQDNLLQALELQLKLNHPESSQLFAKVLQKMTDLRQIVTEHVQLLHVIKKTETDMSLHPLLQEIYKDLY
Description: as §1

full length mouse PPARα = biological target: T3, full length mouse PPARα (Mus musculus, UniProt P23204); assay: Full length PPARα PPRE-luciferase reporter assay in CV-1 cells; format: cell-based; conditions: 100 μM, six hours
T3 construct: constructs including full length mouse PPARα, PPARβ or PPARγ and a luciferase reporter gene; expressed in transfected cells; host or cells: CV-1 (African green monkey kidney cells)
T3 sequence (P23204 1-468): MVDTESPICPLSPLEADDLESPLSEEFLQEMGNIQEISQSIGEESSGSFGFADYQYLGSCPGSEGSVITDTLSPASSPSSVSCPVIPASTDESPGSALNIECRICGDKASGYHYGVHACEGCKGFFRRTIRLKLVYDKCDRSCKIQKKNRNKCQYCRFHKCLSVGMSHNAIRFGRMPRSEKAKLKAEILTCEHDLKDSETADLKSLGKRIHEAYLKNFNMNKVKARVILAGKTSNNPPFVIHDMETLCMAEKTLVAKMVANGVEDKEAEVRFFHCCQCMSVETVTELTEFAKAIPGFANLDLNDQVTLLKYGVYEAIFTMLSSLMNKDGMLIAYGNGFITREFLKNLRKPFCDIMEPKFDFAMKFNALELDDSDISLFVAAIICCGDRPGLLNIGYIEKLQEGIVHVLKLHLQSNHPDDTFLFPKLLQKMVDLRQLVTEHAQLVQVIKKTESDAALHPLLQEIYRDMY
Description: as §1

[1] = listed as trans,cis-10,12-octadecadienoic acid

SMILES	ACO mRNA expression in tissue with predominantly PPARβ (muscle) (ACO and mAP2 mRNA)	Free Fatty Acids + S.D. (Zucker rats; fa/fa rats)	Plasma Triglycerides ± S.D. (Zucker rats; fa/fa rats)	Free Fatty Acids + S.D. (Zucker rats; wt (lean) rats)	Plasma Triglycerides ± S.D. (Zucker rats; wt (lean) rats)	activation of full length PPARβ vs DMSO control / CLA mixture (FIG. 6) (full length mouse PPARβ)	activation of full length PPARβ vs DMSO control / CLA mixture (FIG. 6) (full length mouse PPARβ; [1])	activation of full length PPARγ vs DMSO control (FIG. 7) (full length mouse PPARγ)	activation of full length PPARα vs DMSO control / CLA mixture (FIG. 5) (full length mouse PPARα)	activation of full length PPARα vs DMSO control / CLA mixture (FIG. 5) (full length mouse PPARα; [1])
Cc1c(C)c2c(c(C)c1O)CCC(C)(COc1ccc(CC3SC(=O)NC3=O)cc1)O2 (stereo not shown) [Troglitazone]	no effect	0.778 + 0.378^c mMol	57.08 ± 12.3^c mg/dl	1.139 + 0.277^c mMol	61.1 ± 12.1^c mg/dl					
CCCCC/C=C\C=C\CCCCCCCCC(=O)O [trans,cis-10,12 CLA isomer, trans,cis-10,12-octadecadienoic acid]						significantly more than the CLA mixture alone	activate	activate	significantly more than the CLA mixture alone	activate
